This assay has as its target T1, human GPR68 (Homo sapiens, UniProt Q15743).
T1 construct: encoding full-length human GPR68 (uniprot ID: Q15743); expressed in transfected cells; host or cells: HEK293T
The assay can be described thus: GPR68 Biochemical Assay (Promega GloSensor cAMP assay, GPR68 antagonism). The assay is classed as cell-based. To be noted: HEK293T cells transiently expressing hGPR68, antagonism of pH 5.5 stimulated cAMP, 15 min, read-out: hGPR68 IC50. The method in brief: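 Readout is GloSensor cAMP luminescence after 15 min at room temperature, normalised between pH 5.5 stimulation and pH 8.0 minimum controls; IC50 fitted sigmoidally. Test compounds, up to 50 μM final (9-point half-log, 0.5% DMSO), were co-added with pH 5.5 buffer to HEK293T cells transiently expressing full-length human GPR68 plus GloSensor.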

Some results are limits rather than exact numbers.

T1 sequence (Q15743 whole entry): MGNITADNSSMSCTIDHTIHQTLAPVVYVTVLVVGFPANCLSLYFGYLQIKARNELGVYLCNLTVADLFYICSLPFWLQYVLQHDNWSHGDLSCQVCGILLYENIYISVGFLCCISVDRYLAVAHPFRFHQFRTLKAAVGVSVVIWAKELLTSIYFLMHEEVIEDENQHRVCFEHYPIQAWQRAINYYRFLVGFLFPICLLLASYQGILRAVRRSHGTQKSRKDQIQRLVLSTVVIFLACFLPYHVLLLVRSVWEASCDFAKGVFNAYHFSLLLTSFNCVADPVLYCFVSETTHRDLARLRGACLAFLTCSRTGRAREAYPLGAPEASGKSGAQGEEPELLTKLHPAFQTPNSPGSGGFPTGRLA

In general, IC50 refers to the concentration needed to halve the response being measured. As to `NC(=O)c1c(C2CC2)nc2c(C(=O)NC3CS(=O)(=O)c4ccccc43)ccnn12` (stereo not shown) [Compound 222, 2-cyclopropyl-N8-(1,1-dioxo-2,3-dihydrobenzothiophen-3-yl) imidazo[1,2-b]pyridazine-3,8-dicarboxamide], the IC50 was under 50 nM. The figure for `COCc1nc2c(C(=O)NC3CS(=O)(=O)c4ccccc43)ccnn2c1C(N)=O` (stereo not shown) [Compound 223, N8-(1,1-dioxo-2,3-dihydrobenzothiophen-3-yl)-2-(methoxymethyl)imidazo[1,2-b]pyridazine-3,8-dicarboxamide] is under 50 nM. On to `COCc1nn2c(C(=O)N[C@H]3C[C@H](OC(F)(F)F)C3)ccnc2c1C(N)=O` [Compound 224, 2-(methoxymethyl)-N7-[trans-3-(trifluoromethoxy)cyclobutyl]pyrazolo[1,5-a]pyrimidine-3,7-dicarboxamide], for which the IC50 is 50 to 500 nM.

Consider `COCc1nn2c(C(=O)NC3CS(=O)(=O)C3)ccnc2c1C(N)=O` [Compound 225, N7-(1,1-dioxothietan-3-yl)-2-(methoxymethyl)pyrazolo[1,5-a]pyrimidine-3,7-dicarboxamide], for which the IC50 was under 50 nM. Take `COCc1nn2c(C(=O)NC3CCC(F)(F)c4ccccc43)cc(C)nc2c1C(N)=O` (stereo not shown) [Compound 226, N7-(4,4-difluorotetralin-1-yl)-2-(methoxymethyl)-5-methyl-pyrazolo[1,5-a]pyrimidine-3,7-dicarboxamide]: the IC50 is under 50 nM. With `COCc1nn2c(C(=O)NC3Cc4ccccc4C3)cc(C)nc2c1C(N)=O` [Compound 227, N7-indan-2-yl-2-(methoxymethyl)-5-methyl-pyrazolo[1,5-a]pyrimidine-3,7-dicarboxamide], the IC50 was under 50 nM. On to `CC(C)c1nn2c(C(=O)NC3CS(=O)(=O)c4ccccc43)ccnc2c1C(N)=O` (stereo not shown) [Compound 228, N7-(1,1-dioxo-2,3-dihydrobenzothiophen-3-yl)-2-isopropyl-pyrazolo[1,5-a]pyrimidine-3,7-dicarboxamide], for which the IC50 is under 50 nM. As for `NC(=O)c1c(C2CC2)nn2c(C(=O)NC3CCS(=O)(=O)c4ccccc43)ccnc12` (stereo not shown) [Compound 229, 2-cyclopropyl-N7-(1,1-dioxo-3,4-dihydro-2H-thiochromen-4-yl)pyrazolo[1,5-a]pyrimidine-3,7-dicarboxamide], the IC50 is under 50 nM.

With `CC(C)c1nn2c(C(=O)NC3CCS(=O)(=O)c4ccccc43)ccnc2c1C(N)=O` (stereo not shown) [Compound 230, N7-(1,1-dioxo-3,4-dihydro-2H-thiochromen-4-yl)-2-isopropyl-pyrazolo[1,5-a]pyrimidine-3,7-dicarboxamide], the IC50 was under 50 nM.

As to `NC(=O)c1c(C2CC2)nn2c(C(=O)NC3CS(=O)(=O)c4ccccc43)ccnc12` (stereo not shown) [Compound 231, 2-cyclopropyl-N7-(1,1-dioxo-2,3-dihydrobenzothiophen-3-yl)pyrazolo[1,5-a]pyrimidine-3,7-dicarboxamide], the IC50 was under 50 nM.

On to `COCc1nn2c(C(=O)NC3CC(F)(F)c4ccccc43)cc(C)nc2c1C(N)=O` (stereo not shown) [Compound 232, N7-(3,3-difluoroindan-1-yl)-2-(methoxymethyl)-5-methyl-pyrazolo[1,5-a]pyrimidine-3,7-dicarboxamide], for which the IC50 is under 50 nM.

As for `COCc1nn2c(C(=O)N[C@@H]3CCS(=O)(=O)c4ccccc43)ccnc2c1C(N)=O` [Compound 233, N7-[(4R)-1,1-dioxo-3,4-dihydro-2H-thiochromen-4-yl]-2-(methoxymethyl)pyrazolo[1,5-a]pyrimidine-3,7-dicarboxamidfe], the concentration for half-maximal inhibition (IC50) is under 50 nM. Turning to `NC(=O)c1c(C2CC2)nn2c(C(=O)N[C@@H]3CCS(=O)(=O)c4ccccc43)ccnc12` [Compound 235, 2-cyclopropyl-N7-[(4R)-1,1-dioxo-3,4-dihydro-2H-thiochromen-4-yl]pyrazolo[1,5-a]pyrimidine-3,7-dicarboxamide], the IC50 was under 50 nM.
